Measured values as given in patent US5804164A, “Water-soluble lipophilic contrast agents” (Research Corporation Technologies, Inc., priority 1996, dated 1998).

Test: Relaxivity of dialyzed liposomal Gd(BME-DTTA)
Type: physicochemical
Conditions: dialyzed against saline pH 7.4 with HEPES and Chelex-100
Protocol: In this comparative example, the gadolinium complex of N^3,N^6 -bis(2'-myristoyloxyethyl)-1,8-dioxo-triethylenetetraamine-N,N,N',N'-tetraacetic acid [Gd(BME-DTTA)] was prepared and used for cardiac tissue imaging. Specifically, Gd(BME-DTTA) was synthesized and incorporated into liposomes using the procedure described in the Elgavish et al. article entitled "Fatty-acyl iminopolycarboxylates; lipophilic bifunctional contrast agents for NMR imaging", Magn. Reson. Med. 1991; Vol 22; pp. 57-67.
The liposomal Gd(BME-DTTA) was dialyzed at 4° C. for 24 hours against a saline solution (pH 7.4) that contained 0.9 weight % NaCl, 20 mmol/L HEPES, and 0.5 weight % Chelex-100 to remove any weakly bound Gd ions. […] (mmol/L)^-1.

Substance: gadolinium complex of N^3,N^6 -bis(2'-myristoyloxyethyl)-1,8-dioxo-triethylenetetraamine-N,N,N',N'-tetraacetic acid [Gd(BME-DTTA)]
- relaxivity: 27.1±0.3 s^-1. (mmol/L)^-1
